According to PMC10451032 (ACS Central Science, 2023):

Experiments:
[1] = tested on: top nine high-frequency mutants at residue N142; assay type: biochemical, SARS-CoV-2
Mpro S144A = details: cited from earlier work
[2] = tested on: rNsp5^E166Q recombinant SARS-CoV-2; assay type: cell-based
[3] = biological target: Mpro G15S, T21I, L89F, K90R, P108S, P132H, and L205V; details: cited from earlier work
[4] = tested on: rNsp5^S144A recombinant SARS-CoV-2; assay type: cell-based
[5] = tested on: rNsp5^S144M recombinant SARS-CoV-2; assay type: cell-based
[6] = tested on: Mpro M49I, M49T, M49L, and M49V; assay type: biochemical, SARS-CoV-2
[7] = tested on: rNsp5^H172Q recombinant SARS-CoV-2; assay type: cell-based
eight Q189 mutants = assay type: biochemical, SARS-CoV-2
Mpro H172Y = details: cited from earlier work
[8] = tested on: rNsp5^H172Y recombinant SARS-CoV-2; assay type: cell-based
[9] = tested on: Mpro Q192T, Q192S, Q192L, Q192A, Q192I, Q192P, Q192H, Q192V, Q192W, Q192C, and Q192F; assay type: biochemical, SARS-CoV-2

Row | SMILES | change in IC50 vs WT [1] [fold] | Ki increase (Mpro S144A) [fold] | EC50 [2] [nM] | EC50 fold increase compared to rNsp5^WT [2] [fold] | IC50 or Ki value shifts [3] [fold] | EC50 [4] [nM] | EC50 fold increase compared to rNsp5^WT [4] [fold] | EC50 [5] [nM] | EC50 fold increase compared to rNsp5^WT [5] [fold] | change in IC50 vs WT [6] [fold] | EC50 [7] [nM] | EC50 fold increase compared to rNsp5^WT [7] [fold] | change in IC50 vs WT (eight Q189 mutants) [fold] | increase in Ki (Mpro H172Y) [fold] | EC50 [8] [nM] | Cross-resistance (fold vs WT) [9] [fold]
1 | CC(C)(C)[C@H](NC(=O)C(F)(F)F)C(=O)N1C[C@H]2[C@@H]([C@H]1C(=O)N[C@H](C#N)C[C@@H]1CCNC1=O)C2(C)C [nirmatrelvir] | < 3.5 | 91.9 | 69.7 | 2.7 | < 2 | 127 | 5.0 | 87.1 ± 3.06 | 3.4 | < 3 | 133 ± 2.86 | 5.2 | < 3.1 | 233 | 378 ± 10.2 | –
2 | CC(C)C[C@H](NC(=O)OCc1ccccc1)C(=O)N[C@@H](CC1CCNC1=O)C(O)S(=O)(=O)[O-].[Na+] (stereo partly shown) [GC-376] | – | – | – | – | – | – | – | – | – | – | – | – | – | – | – | > 7.7
